Source: patent US20150065447A1, “SURVIVAL BENEFIT IN PATIENTS WITH SOLID TUMORS WITH ELEVATED C-REACTIVE PROTEIN LEVELS” (Incyte Corporation, priority 2013, published 2015)

Legend:
[1] = molecular target: T1, human JAK2 (a.a. 828-1132) (Homo sapiens, UniProt O60674); assay: In vitro JAK Kinase Assay (HTRF), JAK2 (for JAK2/JAK1 ratio); type: biochemical; conditions: ratio of IC50s, 1 mM ATP
T1 construct: JAK2 (a.a. 828-1132); His tag (N); made in house; host or cells: insect cells (baculovirus)
Description: (§1) The catalytic activity of JAK1 and JAK2 was assayed by measuring the phosphorylation of a biotinylated peptide. The phosphorylated peptide was detected by homogenous time resolved fluorescence (HTRF). […] Reactions were carried out at room temperature for 1 hr and then stopped with 20 μL 45 mM EDTA, 300 nM SA-APC, 6 nM Eu-Py20 in assay buffer (Perkin Elmer, Boston, Mass.). Binding to the Europium labeled antibody took place for 40 minutes and HTRF signal was measured on a Fusion plate reader (Perkin Elmer, Boston, Mass.).

[2] = molecular target: T2, human JAK1 (a.a. 837-1142) (Homo sapiens, UniProt P23458); assay: In vitro JAK Kinase Assay (HTRF), JAK1; type: biochemical; conditions: 1 mM ATP
T2 construct: human JAK1 (a.a. 837-1142); His tag (N); made in house; host or cells: insect cells (baculovirus)
Description: as §1

T2 sequence (P23458 849-1154): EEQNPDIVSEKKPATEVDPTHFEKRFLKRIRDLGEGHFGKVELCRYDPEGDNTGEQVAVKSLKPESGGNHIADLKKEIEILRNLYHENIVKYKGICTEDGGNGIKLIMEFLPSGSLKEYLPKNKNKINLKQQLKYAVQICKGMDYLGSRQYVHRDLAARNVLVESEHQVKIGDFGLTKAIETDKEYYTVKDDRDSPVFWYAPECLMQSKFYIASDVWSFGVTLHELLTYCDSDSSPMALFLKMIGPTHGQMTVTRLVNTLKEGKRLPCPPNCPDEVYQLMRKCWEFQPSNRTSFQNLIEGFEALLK
T1 sequence (O60674 828-1132): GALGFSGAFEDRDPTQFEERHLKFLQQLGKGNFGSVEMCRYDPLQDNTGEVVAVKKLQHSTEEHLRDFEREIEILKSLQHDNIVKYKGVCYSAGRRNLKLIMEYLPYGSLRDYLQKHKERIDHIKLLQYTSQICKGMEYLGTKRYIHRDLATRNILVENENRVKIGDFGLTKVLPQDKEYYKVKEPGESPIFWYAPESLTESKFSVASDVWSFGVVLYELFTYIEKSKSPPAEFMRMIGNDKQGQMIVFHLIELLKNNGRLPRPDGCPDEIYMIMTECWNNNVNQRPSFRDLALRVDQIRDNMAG

Row | JAK2/JAK1 [1] | IC50 [2] [nM] | Compound
1 | >10 | < 10 | N#CCC1(n2cc(-c3ncnc4[nH]ccc34)cn2)CN([C@H]2CC[C@@H](Oc3cc(CCO)nc(C(F)(F)F)n3)CC2)C1 [Compound 18, (l-(cis-4-{[6-(2-hydroxyethyl)-2-(trifluoromethyl)pyrimidin-4-yl]oxy}cyclohexyl)-3-[4-(7H-pyrrolo[2,3-d]pyrimidin-4-yl)-1H-pyrazol-1-yl]azetidin-3-yl}acetonitrile]
2 | >10 | < 10 | CCNCc1cc(O[C@H]2CC[C@@H](N3CC(CC#N)(n4cc(-c5ncnc6[nH]ccc56)cn4)C3)CC2)nc(C(F)(F)F)c1 [Compound 19, {l-(cis-4-{[4-[(ethylamino)methyl]-6-(trifluoromethyl)pyridin-2-yl]oxy}cyclohexyl)-3-[4-(7H-pyrrolo[2,3-d]pyrimidin-4-yl)-1H-pyrazol-1-yl]azetidin-3-yl}acetonitrile]
3 | >10 | < 10 | CC(C)(O)c1cc(O[C@H]2CC[C@@H](N3CC(CC#N)(n4cc(-c5ncnc6[nH]ccc56)cn4)C3)CC2)nc(C(F)(F)F)c1 [Compound 20, {1-(cis-4-{[4-(1-hydroxy-1-methylethyl)-6-(trifluoromethyl)pyridin-2-yl]oxy}cyclohexyl)-3-[4-(7H-pyrrolo[2,3-d]pyrimidin-4-yl)-1H-pyrazol-1-yl]azetidin-3-yl}acetonitrile]
4 | >10 | < 10 | N#CCC1(n2cc(-c3ncnc4[nH]ccc34)cn2)CN([C@H]2CC[C@@H](Oc3cc(CN4CC[C@@H](O)C4)cc(C(F)(F)F)n3)CC2)C1 [Compound 21, {1-(cis-4-{[4-{[(3R)-3-hydroxypyrrolidin-1-yl]methyl}-6-(trifluoromethyl)pyridin-2-yl]oxy}cyclohexyl)-3-[4-(7H-pyrrolo[2,3-d]pyrimidin-4-yl)-1H-pyrazol-1-yl]azetidin-3-yl}acetonitrile]
5 | >10 | < 10 | N#CCC1(n2cc(-c3ncnc4[nH]ccc34)cn2)CN([C@H]2CC[C@@H](Oc3cc(CN4CC[C@H](O)C4)cc(C(F)(F)F)n3)CC2)C1 [Compound 22, {1-(cis-4-{[4-{[(3S)-3-hydroxypyrrolidin-1-yl]methyl}-6-(trifluoromethyl)pyridin-2-yl]oxy}cyclohexyl)-3-[4-(7H-pyrrolo[2,3-d]pyrimidin-4-yl)-1H-pyrazol-1-yl]azetidin-3-yl}acetonitrile]
6 | >10 | < 10 | C[C@@H](CO)NCc1cc(OC2CCN([C@H]3C[C@](CC#N)(n4cc(-c5ncnc6[nH]ccc56)cn4)C3)CC2)nc(C(F)(F)F)c1 [Compound 23, {trans-3-(4-{[4-({[(1S)-2-hydroxy-1-methylethyl]amino}methyl)-6-(trifluoromethyl)pyridin-2-yl]oxy}piperidin-1-yl)-1-[4-(7H-pyrrolo[2,3-d]pyrimidin-4-yl)-1H-pyrazol-1-yl]cyclobutyl}acetonitrile]
7 | >10 | < 10 | C[C@@H](O)CNCc1cc(OC2CCN([C@H]3C[C@](CC#N)(n4cc(-c5ncnc6[nH]ccc56)cn4)C3)CC2)nc(C(F)(F)F)c1 [Compound 24, {trans-3-(4-{[4-({[(2R)-2-hydroxypropyl]amino}methyl)-6-(trifluoromethyl)pyridin-2-yl]oxy}piperidin-1-yl)-1-[4-(7H-pyrrolo[2,3-d]pyrimidin-4-yl)-1H-pyrazol-1-yl]cyclobutyl}acetonitrile]
8 | >10 | < 10 | C[C@H](O)CNCc1cc(OC2CCN([C@H]3C[C@](CC#N)(n4cc(-c5ncnc6[nH]ccc56)cn4)C3)CC2)nc(C(F)(F)F)c1 [Compound 25, {trans-3-(4-{[4-({[(2S)-2-hydroxypropyl]amino}methyl)-6-(trifluoromethyl)pyridin-2-yl]oxy}piperidin-1-yl)-1-[4-(7H-pyrrolo[2,3-d]pyrimidin-4-yl)-1H-pyrazol-1-yl]cyclobutyl}acetonitrile]
9 | >10 | < 10 | N#CC[C@]1(n2cc(-c3ncnc4[nH]ccc34)cn2)C[C@H](N2CCC(Oc3cc(CCO)cc(C(F)(F)F)n3)CC2)C1 [Compound 26, {trans-3-(4-{[4-(2-hydroxyethyl)-6-(trifluoromethyl)pyridin-2-yl]oxy}piperidin-1-yl)-1-[4-(7H-pyrrolo[2,3-d]pyrimidin-4-yl)-1H-pyrazol-1-yl]cyclobutyl}acetonitrile]
